test: Solubility measurement in diluting solvents; format: physicochemical; settings: CH2Cl2; 25° C., 100 rpm, 1 hour; 0.5 g of compound added
Procedure: 0.5 g of each compound according to Synthesis Examples 1 to 3 was respectively added to diluting solvents (MeOH, CH2Cl2, cyclohexanone), each solution was stirred with a rotary mixer (Mixrotar VMR-5, Iuchi Seieido Co., Ltd.) at 25° C. and 100 rpm for 1 hour, and then, the dissolution state of each compound (the amount of the compound dissolved in the solvents) was examined, and the results are provided in Table 1.

SMILES	Amount of dissolved compound
CCN(CCOC(=O)NC(C)(C)C)c1ccc2c(-c3ccccc3S(=O)(=O)[O-])c3ccc(=[N+](CC)CC)cc-3oc2c1 [Chemical Formula 5]	>7% wt %
CCN(CCOC(=O)NC1CCCCC1)c1ccc2c(-c3ccccc3S(=O)(=O)[O-])c3ccc(=[N+](CC)CC)cc-3oc2c1 [Chemical Formula 6]	>7% wt %
CCN(CCOC(=O)Nc1ccccc1)c1ccc2c(-c3ccccc3S(=O)(=O)[O-])c3ccc(=[N+](CC)CC)cc-3oc2c1 [Chemical Formula 7]	>7% wt %
CCN(CCOC(=O)NC(C)(C)C)c1ccc2c(-c3ccccc3S(=O)(=O)[O-])c3cc/c(=[N+](/CC)CCOC(=O)NC(C)(C)C)cc-3oc2c1 [Chemical Formula 8]	>10% wt %
CCN(CCOC(=O)NC1CCCCC1)c1ccc2c(-c3ccccc3S(=O)(=O)[O-])c3cc/c(=[N+](/CC)CCOC(=O)NC4CCCCC4)cc-3oc2c1 [Chemical Formula 9]	>10% wt %
CCN(CCOC(=O)Nc1ccccc1)c1ccc2c(-c3ccccc3S(=O)(=O)[O-])c3cc/c(=[N+](/CC)CCOC(=O)Nc4ccccc4)cc-3oc2c1 [Chemical Formula 10]	>10% wt %

same assay, conditions: Cyclohexanone; 25° C., 100 rpm, 1 hour; 0.5 g of compound added

SMILES	Amount of dissolved compound
CCN(CCOC(=O)NC(C)(C)C)c1ccc2c(-c3ccccc3S(=O)(=O)[O-])c3ccc(=[N+](CC)CC)cc-3oc2c1 [Chemical Formula 5]	3% wt %
CCN(CCOC(=O)NC1CCCCC1)c1ccc2c(-c3ccccc3S(=O)(=O)[O-])c3ccc(=[N+](CC)CC)cc-3oc2c1 [Chemical Formula 6]	3% wt %
CCN(CCOC(=O)Nc1ccccc1)c1ccc2c(-c3ccccc3S(=O)(=O)[O-])c3ccc(=[N+](CC)CC)cc-3oc2c1 [Chemical Formula 7]	2% wt %
CCN(CCOC(=O)NC(C)(C)C)c1ccc2c(-c3ccccc3S(=O)(=O)[O-])c3cc/c(=[N+](/CC)CCOC(=O)NC(C)(C)C)cc-3oc2c1 [Chemical Formula 8]	5% wt %
CCN(CCOC(=O)NC1CCCCC1)c1ccc2c(-c3ccccc3S(=O)(=O)[O-])c3cc/c(=[N+](/CC)CCOC(=O)NC4CCCCC4)cc-3oc2c1 [Chemical Formula 9]	5% wt %
CCN(CCOC(=O)Nc1ccccc1)c1ccc2c(-c3ccccc3S(=O)(=O)[O-])c3cc/c(=[N+](/CC)CCOC(=O)Nc4ccccc4)cc-3oc2c1 [Chemical Formula 10]	3% wt %

same assay, conditions: MeOH; 25° C., 100 rpm, 1 hour; 0.5 g of compound added

SMILES	Amount of dissolved compound
CCN(CCOC(=O)NC(C)(C)C)c1ccc2c(-c3ccccc3S(=O)(=O)[O-])c3ccc(=[N+](CC)CC)cc-3oc2c1 [Chemical Formula 5]	>7% wt %
CCN(CCOC(=O)NC1CCCCC1)c1ccc2c(-c3ccccc3S(=O)(=O)[O-])c3ccc(=[N+](CC)CC)cc-3oc2c1 [Chemical Formula 6]	>7% wt %
CCN(CCOC(=O)Nc1ccccc1)c1ccc2c(-c3ccccc3S(=O)(=O)[O-])c3ccc(=[N+](CC)CC)cc-3oc2c1 [Chemical Formula 7]	>7% wt %
CCN(CCOC(=O)NC(C)(C)C)c1ccc2c(-c3ccccc3S(=O)(=O)[O-])c3cc/c(=[N+](/CC)CCOC(=O)NC(C)(C)C)cc-3oc2c1 [Chemical Formula 8]	>10% wt %
CCN(CCOC(=O)NC1CCCCC1)c1ccc2c(-c3ccccc3S(=O)(=O)[O-])c3cc/c(=[N+](/CC)CCOC(=O)NC4CCCCC4)cc-3oc2c1 [Chemical Formula 9]	>10% wt %
CCN(CCOC(=O)Nc1ccccc1)c1ccc2c(-c3ccccc3S(=O)(=O)[O-])c3cc/c(=[N+](/CC)CCOC(=O)Nc4ccccc4)cc-3oc2c1 [Chemical Formula 10]	>10% wt %
